Assays:
[1] = Human liver microsome assay; type: in vitro ADME; settings: 1 uM substrate, 0.5 mg/mL liver microsome, 2 mM NADPH, 37° C., referenced against time zero control
Protocol: Human Liver Microsome Assay Protocol
Liver microsomal stability data were generated as follows. Substrates were incubated at 37° C. and shaken for 30 minutes in a phosphate buffered solution with human liver microsomes and the cofactor NADPH. A time zero control was similarly prepared, however with NADPH excluded. The final incubation concentrations were 1 uM substrate (0.2% DMSO), 0.5 mg/mL liver microsome, 2 mM NADPH, and 0.1 M phosphate. Reactions were quenched and proteins precipitated with the addition of 2 volume equivalents of ice cold acetonitrile containing an internal standard. Following a centrifugation step, aliquots from the quenched incubations were further diluted with 4 volume equivalents of a 50% aqueous methanol solution and then subjected to LC/MS/MS analysis for quantitation of parent substrate. Microsome stability values were calculated as the percent of substrate remaining after 30 minutes referenced against the time zero control.

[2] = molecular target: human Nav1.8 (Homo sapiens (Human), UniProt Q9Y5Y9); assay: E-VIPR optical membrane potential assay with electrical stimulation; type: cell-based; settings: HEK cells expressing human Nav1.8
Text: E-VIPR Optical Membrane Potential Assay Method with Electrical Stimulation
Sodium channels are voltage-dependent proteins that can be activated by inducing membrane voltage changes by applying electric fields. The electrical stimulation instrument and methods of use are described in Ion Channel Assay Methods PCT/US01/21652, herein incorporated by reference and are referred to as E-VIPR. The instrument comprises a microtiter plate handler, an optical system for exciting the coumarin dye while simultaneously recording the coumarin and oxonol emissions, a waveform generator, a current- or voltage-controlled amplifier, and a device for inserting electrodes in well. Under integrated computer control, this instrument passes user-programmed electrical stimulus protocols to cells within the wells of the microtiter plate.
24 hours before the assay on E-VIPR, HEK cells expressing human Nav1.8 were seeded in 384-well poly-lysine coated plates at 15,000-20,000 cells per well. HEK cells were grown in media (exact composition is specific to each cell type and NaV subtype) supplemented with 10% FBS (Fetal Bovine Serum, qualified; GibcoBRL #16140-071) and 1% Pen-Strep (Penicillin-Streptomycin; GibcoBRL #15140-122). Cells were grown in vented cap flasks, in 90% humidity and 5% CO2.
• 100 mg/mL Pluronic F-127 (Sigma #P2443), in dry DMSO • Compound Plates: 384-well round bottom plate, e.g. Corning 384-well Polypropylene Round Bottom #3656 • Cell Plates: 384-well tissue culture treated plate, e.g. Greiner #781091-1B • 10 mM DiSBAC6(3) (Aurora #00-100-010) in dry DMSO • 10 mM CC2-DMPE (Aurora #00-100-008) in dry DMSO • 200 mM ABSC1 in H20
Bath1 buffer: Glucose 10 mM (1.8 g/L), Magnesium Chloride (Anhydrous), 1 mM (0.095 g/L), Calcium Chloride, 2 mM (0.222 g/L), HEPES 10 mM (2.38 g/L), Potassium Chloride, 4.5 mM (0.335 g/L), Sodium Chloride 160 mM (9.35 g/L).
Hexyl Dye Solution: Bath1 Buffer+0.5% β-cyclodextrin (make this prior to use, Sigma #C4767), 8 μM CC2-DMPE+2.5 μM DiSBAC6(3). To make the solution Added volume of 10% Pluronic F127 stock equal to volumes of CC2-DMPE+DiSBAC6(3). The order of preparation was first mix Pluronic and CC2-DMPE, then added DiSBAC6(3) while vortexing, then added Bath1+β-Cyclodextrin.
1) Pre-spotted compounds (in neat DMSO) into compound plates. Vehicle control (neat DMSO), the positive control (20 mM DMSO stock tetracaine, 125 μM final in assay) and test compounds were added to each well at 160× desired final concentration in neat DMSO. Final compound plate volume was 80 μL (80-fold intermediate dilution from 1 μL DMSO spot; 160-fold final dilution after transfer to cell plate). Final DMSO concentration for all wells in assay was 0.625%.
2) Prepared Hexyl Dye Solution.
3) Prepared cell plates. On the day of the assay, medium was aspirated and cells were washed three times with 100 μL of Bath1 Solution, maintaining 25 μL residual volume in each well.
4) Dispensed 25 μL per well of Hexyl Dye Solution into cell plates. Incubated for 20-35 minutes at room temp or ambient conditions.
5) Dispensed 80 μL per well of Bath1 into compound plates. Acid Yellow-17 (1 mM) was added and Potassium Chloride was altered from 4.5 to 20 mM depending on the NaV subtype and assay sensitivity.
6) Washed cell plates three times with 100 μL per well of Bath1, leaving 25 μL of residual volume. Then transferred 25 uL per well from Compound Plates to Cell Plates. Incubated for 20-35 minutes at room temp/ambient condition.
7) Read Plate on E-VIPR. Used the current-controlled amplifier to deliver stimulation wave pulses for 10 seconds and a scan rate of 200 Hz. A pre-stimulus recording was performed for 0.5 seconds to obtain the un-stimulated intensities baseline. The stimulatory waveform was followed by 0.5 seconds of post-stimulation recording to examine the relaxation to the resting state.
Data was analyzed and reported as normalized ratios of emission intensities measured in the 460 nm and 580 nm channels. […]

Chain of human Nav1.8 (Q9Y5Y9 whole entry): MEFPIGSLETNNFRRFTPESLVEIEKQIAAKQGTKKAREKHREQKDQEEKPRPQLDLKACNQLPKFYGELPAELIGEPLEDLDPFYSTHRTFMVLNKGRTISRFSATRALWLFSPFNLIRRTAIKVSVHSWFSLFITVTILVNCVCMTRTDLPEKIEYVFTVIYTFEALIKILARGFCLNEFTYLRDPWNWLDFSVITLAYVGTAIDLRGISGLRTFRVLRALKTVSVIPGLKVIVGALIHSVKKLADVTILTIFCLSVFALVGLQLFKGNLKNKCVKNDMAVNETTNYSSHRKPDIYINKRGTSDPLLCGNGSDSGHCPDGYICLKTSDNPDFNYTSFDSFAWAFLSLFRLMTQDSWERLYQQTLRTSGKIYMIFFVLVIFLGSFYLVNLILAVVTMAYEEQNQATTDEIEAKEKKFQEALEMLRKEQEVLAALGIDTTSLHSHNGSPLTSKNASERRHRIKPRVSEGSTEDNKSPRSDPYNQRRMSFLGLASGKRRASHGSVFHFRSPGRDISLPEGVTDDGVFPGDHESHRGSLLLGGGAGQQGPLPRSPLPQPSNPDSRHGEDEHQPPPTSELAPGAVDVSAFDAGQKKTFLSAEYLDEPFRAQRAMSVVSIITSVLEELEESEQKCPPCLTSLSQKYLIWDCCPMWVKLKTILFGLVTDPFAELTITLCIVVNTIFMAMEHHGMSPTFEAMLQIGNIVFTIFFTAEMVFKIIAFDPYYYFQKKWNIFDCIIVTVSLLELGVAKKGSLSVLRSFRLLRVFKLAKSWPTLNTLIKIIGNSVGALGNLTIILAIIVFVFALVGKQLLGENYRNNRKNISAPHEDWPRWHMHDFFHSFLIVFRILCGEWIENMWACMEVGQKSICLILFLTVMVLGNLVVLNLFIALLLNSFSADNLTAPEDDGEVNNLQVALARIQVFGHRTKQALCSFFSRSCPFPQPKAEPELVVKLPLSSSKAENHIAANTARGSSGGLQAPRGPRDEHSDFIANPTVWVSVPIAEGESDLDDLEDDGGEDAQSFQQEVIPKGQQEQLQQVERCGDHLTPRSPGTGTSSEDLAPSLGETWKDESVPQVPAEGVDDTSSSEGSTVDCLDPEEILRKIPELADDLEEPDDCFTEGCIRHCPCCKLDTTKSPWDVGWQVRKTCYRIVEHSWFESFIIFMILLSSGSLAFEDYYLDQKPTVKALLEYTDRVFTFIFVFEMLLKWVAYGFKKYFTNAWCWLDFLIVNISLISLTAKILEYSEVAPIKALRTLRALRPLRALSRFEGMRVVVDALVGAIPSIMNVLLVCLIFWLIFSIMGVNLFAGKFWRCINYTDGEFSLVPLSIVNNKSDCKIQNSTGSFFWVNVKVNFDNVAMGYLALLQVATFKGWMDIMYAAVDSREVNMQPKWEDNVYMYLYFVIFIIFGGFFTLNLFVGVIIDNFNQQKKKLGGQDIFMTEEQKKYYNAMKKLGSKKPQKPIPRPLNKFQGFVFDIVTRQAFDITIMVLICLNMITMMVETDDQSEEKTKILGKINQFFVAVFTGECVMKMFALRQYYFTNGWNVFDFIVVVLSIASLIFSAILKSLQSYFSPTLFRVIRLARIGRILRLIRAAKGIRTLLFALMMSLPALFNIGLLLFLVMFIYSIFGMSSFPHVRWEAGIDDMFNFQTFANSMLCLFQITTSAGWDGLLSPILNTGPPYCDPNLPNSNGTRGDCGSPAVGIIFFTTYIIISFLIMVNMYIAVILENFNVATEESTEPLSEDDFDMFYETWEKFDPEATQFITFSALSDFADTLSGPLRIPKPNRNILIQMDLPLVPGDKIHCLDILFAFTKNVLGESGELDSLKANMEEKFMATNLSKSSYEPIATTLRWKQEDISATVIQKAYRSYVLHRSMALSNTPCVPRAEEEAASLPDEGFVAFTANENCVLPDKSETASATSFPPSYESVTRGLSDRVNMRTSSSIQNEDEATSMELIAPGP

SMILES | HLM: percent unchanged after 30 min [1] [%] | IC50 [2] [nM]
NS(=O)(=O)c1cccc(NC(=O)c2ccc(C(F)(F)F)cc2Oc2ccc(F)cc2)c1 [Compound 1, 2-(4-fluorophenoxy)-N-(3-sulfamoylphenyl)-4-(trifluoromethyl)benzamide] | 83 | 14
NS(=O)(=O)c1cccc(NC(=O)c2cc(C(F)(F)F)ccc2Oc2ccc(F)cc2)c1 [Compound 3, 2-(4-fluorophenoxy)-N-(3-sulfamoylphenyl)-5-(trifluoromethyl)benzamide] | 117 | 16
N#Cc1ccc(C(=O)Nc2cccc(S(N)(=O)=O)c2)c(Oc2ccc(F)cc2Cl)c1 [Compound 4, 2-(2-chloro-4-fluoro-phenoxy)-4-cyano-N-(3-sulfamoylphenyl)benzamide] | 118 | 27
NS(=O)(=O)c1cccc(NC(=O)c2cc(Cl)ccc2Oc2ccc(F)cc2)c1 [Compound 5, 5-chloro-2-(4-fluorophenoxy)-N-(3-sulfamoylphenyl)benzamide] | 107 | 21
Cc1cc(C(=O)Nc2cccc(S(N)(=O)=O)c2)c(Oc2ccc(F)cc2)cc1Cl [Compound 7, 4-chloro-2-(4-fluorophenoxy)-5-methyl-N-(3-sulfamoylphenyl)benzamide] | 78 | 12
NS(=O)(=O)c1cccc(NC(=O)c2ccc(Cl)cc2Oc2ccc(F)cc2Cl)c1 [Compound 8, 4-chloro-2-(2-chloro-4-fluorophenoxy)-N-(3-sulfamoylphenyl)benzamide] | 108 | 10
COc1cc(F)ccc1Oc1cc(C#N)ccc1C(=O)Nc1cccc(S(N)(=O)=O)c1 [Compound 10, 4-cyano-2-(4-fluoro-2-methoxyphenoxy)-N-(3-sulfamoylphenyl)benzamide] | 86 | 20
N#Cc1ccc(Oc2ccc(F)cc2Cl)c(C(=O)Nc2cccc(S(N)(=O)=O)c2)c1 [Compound 11, 2-(2-chloro-4-fluorophenoxy)-5-cyano-N-(3-sulfamoylphenyl)benzamide] | 89 | 24
COc1cc(F)ccc1Oc1cc(Cl)ccc1C(=O)Nc1cccc(S(N)(=O)=O)c1 [Compound 15, 4-chloro-2-(4-fluoro-2-methoxy-phenoxy)-N-(3-sulfamoylphenyl)benzamide] | 81 | 13
COc1cc(F)ccc1Oc1ccc(Cl)cc1C(=O)Nc1cccc(S(N)(=O)=O)c1 [Compound 16, 5-chloro-2-(4-fluoro-2-methoxyphenoxy)-N-(3-sulfamoylphenyl)benzamide] | 86 | 7
NS(=O)(=O)c1cccc(NC(=O)c2cc(Cl)ccc2Oc2ccc(F)cc2Cl)c1 [Compound 17, 5-chloro-2-(2-chloro-4-fluorophenoxy)-N-(3-sulfamoylphenyl)benzamide] | 102 | 5
COc1ccc(Oc2cc(Cl)c(Cl)cc2C(=O)Nc2cccc(S(N)(=O)=O)c2)c(OC)c1 [Compound 76, 4,5-dichloro-2-(2,4-dimethoxyphenoxy)-N-(3-sulfamoylphenyl)benzamide] | 58 | 
COc1cc(Cl)ccc1Oc1cc(Cl)ccc1C(=O)Nc1cccc(S(N)(=O)=O)c1 [Compound 85, 4-chloro-2-(4-chloro-2-methoxyphenoxy)-N-(3-sulfamoylphenyl)benzamide] |  | 15
CC(C)Oc1ccc(Oc2cc(Cl)ccc2C(=O)Nc2cccc(S(N)(=O)=O)c2)cc1 [Compound 87, 4-chloro-2-(4-isopropoxyphenoxy)-N-(3-sulfamoylphenyl)benzamide] |  | 29
COc1ccc(Oc2cc(C(F)(F)F)cc(C3CC3)c2C(=O)Nc2cccc(S(N)(=O)=O)c2)cc1F [Compound 100, 2-cyclopropyl-6-(3-fluoro-4-methoxyphenoxy)-N-(3-sulfamoylphenyl)-4-(trifluoromethyl)benzamide] |  | 18

Continued, values first:

HLM: percent unchanged after 30 min [1] [%] | IC50 [2] [nM] | SMILES
97 | 22 | NS(=O)(=O)c1cccc(NC(=O)c2ccc(C(F)(F)F)cc2Oc2ccc(F)cc2F)c1 [Compound 2, 2-(2,4-difluorophenoxy)-N-(3-sulfamoylphenyl)-4-(trifluoromethyl)benzamide]
106 | 13 | NS(=O)(=O)c1cccc(NC(=O)c2cc(C(F)(F)F)ccc2Oc2ccc(F)cc2F)c1 [Compound 6, 2-(2,4-difluorophenoxy)-N-(3-sulfamoylphenyl)-5-(trifluoromethyl)benzamide]
102 | 28 | Cc1cc(F)ccc1Oc1cc(C#N)ccc1C(=O)Nc1cccc(S(N)(=O)=O)c1 [Compound 9, 4-cyano-2-(4-fluoro-2-methyl-phenoxy)-N-(3-sulfamoylphenyl)benzamide]
94 | 9 | Cc1cc(F)ccc1Oc1cccc(C(F)(F)F)c1C(=O)Nc1cccc(S(N)(=O)=O)c1 [Compound 12, 2-(4-fluoro-2-methylphenoxy)-N-(3-sulfamoylphenyl)-6-(trifluoromethyl)benzamide]
78 | 2 | COc1cc(F)ccc1Oc1cccc(C(F)(F)F)c1C(=O)Nc1cccc(S(N)(=O)=O)c1 [Compound 13, 2-(4-fluoro-2-methoxyphenoxy)-N-(3-sulfamoylphenyl)-6-(trifluoromethyl)benzamide]
83 | 5 | COc1cc(F)ccc1Oc1cc(C(F)(F)F)ccc1C(=O)Nc1cccc(S(N)(=O)=O)c1 [Compound 14, 2-(4-fluoro-2-methoxyphenoxy)-N-(3-sulfamoylphenyl)-4-(trifluoromethyl)benzamide]
98 | 7 | Cc1cc(F)ccc1Oc1cc(C(F)(F)F)ccc1C(=O)Nc1cccc(S(N)(=O)=O)c1 [Compound 18, 2-(4-fluoro-2-methylphenoxy)-N-(3-sulfamoylphenyl)-4-(trifluoromethyl)benzamide]
94 | 16 | Cc1cc(F)ccc1Oc1cc(Cl)ccc1C(=O)Nc1cccc(S(N)(=O)=O)c1 [Compound 19, 4-chloro-2-(4-fluoro-2-methyl-phenoxy)-N-(3-sulfamoylphenyl)benzamide]
96 | 4 | Cc1cc(F)ccc1Oc1ccc(Cl)cc1C(=O)Nc1cccc(S(N)(=O)=O)c1 [Compound 20, 5-chloro-2-(4-fluoro-2-methylphenoxy)-N-(3-sulfamoylphenyl)benzamide]
96 | 23 | Cc1cc(F)ccc1Oc1ccc(F)cc1C(=O)Nc1cccc(S(N)(=O)=O)c1 [Compound 21, 5-fluoro-2-(4-fluoro-2-methylphenoxy)-N-(3-sulfamoylphenyl)benzamide]

Reference: US11203571B2, “Sulfonamides as modulators of sodium channels” (VERTEX PHARMACEUTICALS INCORPORATED, priority 2013, dated 2021)
